According to PMC10059965, “Tsaokoic Acid: A New Bicyclic Nonene from the Fruits of Amomum tsao-ko with Acetylcholinesterase Inhibitory Activity” (Molecules, 2023):
Where two headings read alike, the source gives them in different places.

What was measured:
AChE [1] = target: T1, AChE (Homo sapiens, UniProt P22303); test: biochemical; settings: for inhibition at 2 µM: concentration 2 μM; for inhibition at 10 µM: concentration 10 μM; for inhibition at 50 µM: concentration 50 μM
[2] = previous studies; cited from earlier work
AChE [3] = target: T1, AChE; settings: previous in vitro and in vivo reports; cited from earlier work
[4] = Ellman method, pH 8.0, triplicate, read-out: IC50 (AChE-inhibitory activity)
[5] = read-out: Inhibition (%) of AChE

T1 sequence (P22303 32-614): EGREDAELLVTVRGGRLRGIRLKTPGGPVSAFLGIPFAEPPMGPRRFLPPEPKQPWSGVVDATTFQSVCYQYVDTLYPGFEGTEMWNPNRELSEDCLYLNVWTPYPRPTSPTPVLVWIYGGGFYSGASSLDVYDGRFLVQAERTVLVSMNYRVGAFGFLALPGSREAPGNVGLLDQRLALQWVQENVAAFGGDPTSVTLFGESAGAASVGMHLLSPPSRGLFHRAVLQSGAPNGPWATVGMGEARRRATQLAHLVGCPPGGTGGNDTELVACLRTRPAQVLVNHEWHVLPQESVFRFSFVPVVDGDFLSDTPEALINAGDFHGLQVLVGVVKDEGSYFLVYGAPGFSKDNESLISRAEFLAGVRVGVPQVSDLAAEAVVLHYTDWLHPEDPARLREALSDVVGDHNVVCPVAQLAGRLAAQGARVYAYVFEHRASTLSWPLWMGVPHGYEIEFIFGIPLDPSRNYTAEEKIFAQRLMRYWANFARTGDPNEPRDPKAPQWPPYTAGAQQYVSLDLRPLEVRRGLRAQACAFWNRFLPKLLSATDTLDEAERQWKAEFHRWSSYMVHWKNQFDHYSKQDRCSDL

Row | SMILES | IC50 (AChE [1]; [4]) | inhibition at 2 µM (AChE [1]) | inhibition at 10 µM (AChE [1]) | inhibition at 50 µM (AChE [1]) | Antifungal activity [2] | IC50 (AChE [1]) | AChE-inhibitory activities (AChE [3]) | inhibition at 0.04 µM (AChE [1]; [5]) | inhibition at 0.2 µM (AChE [1]; [5]) | inhibition at 1 µM (AChE [1]; [5])
1 | O=C(O)C1=CC[C@@H](O)[C@H]2CCC[C@@H]12 (relative stereo) [Compound 1, rel-(1R,5R,6S)-5-hydroxybicyclo[4.3.0]non-2-ene-2-carboxylic acid] | 32.8 µM | 2.09% | 29.5% | 70.9% | – | – | – | – | – | –
2 | O=CC1=CC[C@@H](O)[C@H]2CCC[C@@H]12 (relative stereo) [Compound 2, rel-(1R,5R,6S)-5-hydroxybicyclo[4,3,0]non-2-ene-2-carboxaldehyde] | 41.7 µM | -6.07% | 7.74% | 62.1% | weak antifungal activity | – | – | – | – | –
3 | COc1cc(C=O)ccc1O [Compound 3, vanillin] | – | -1.88% | 6.07% | – | – | 39.3 µM | has AChE-inhibitory activities | – | – | –
4 | COc1cc(/C=C/C=C/C(=O)CCc2ccc(O)cc2)ccc1O [Compound 4, tsaokoarylone] | 31.1 µM | -11.9% | 30.8% | 78.7% | – | – | – | – | – | –
5 | COc1ccc2cc3[n+](cc2c1OC)CCc1cc2c(cc1-3)OCO2 [berberine, reference compound] | – | – | – | – | – | – | – | 20.7% | 73.4% | 95.8%
